Results on 22 compounds are retold here after patent US20240158370A1, “CK1 alpha AND DUAL CK1 alpha / GSPT1 DEGRADING COMPOUNDS” (Innovo Therapeutics, Inc., priority 2022, published 2024).

Structures are written as SMILES. Where only a bound is given, the exact number is not on record here.

In one test the target is GSPT1 (Homo sapiens, UniProt P15170+Q96SW2). The test is described as follows: HiBiT degradation assay, GSPT1, Procedure B (Molt 4_hGSPT1_HiBIT cells). The class given is cell-based. Set-up: Molt 4_hGSPT1_HiBIT N-terminus tagged cells were generated using CRISPR technology; endogenous in cells; host or cells: Molt 4 cells, CRISPR-edited. Particulars: six hours. The method, then:
Molt 4_hGSPT1_HiBIT N-terminus tagged cells were generated using CRISPR technology. Cells were maintained in RPMI media (Thermo Fisher Scientific, Catalog #11875-093) containing 10% Fetal Bovine Serum (Thermo Fisher Scientific, Catalog #16140071) 1% Penicillin-Streptomycin (Thermo Fisher Scientific, Catalog #25200056). Cells were maintained at 37° C. in a 5% CO2 environment.
Compounds were spotted onto Cornin 384-Well, Cell Culture-Treated, Flat-Bottom, Low Flange Microplate (Fisher Scientific, Catalog #07-201-013) using a Tecan D300e digital dispenser. Ten-point dose response curves spanning from 10 μM to 0.005 μM with a 0.1% DMSO tolerance were used.
Cells were centrifuged for 5 minutes at 1200 RPMs. Cell culture media was aspirated off and cells were resuspended with RPMI+10% FBS. Cell density was determined using a Denovix CellDrop BF cell counter. Cell density was adjusted to 1×10^6 cells/ml. 40 μl of cells was added to compound treated tissue culture plates and incubated for six hours at 37° C. After six hours, cell culture plates were removed from tissue culture incubator and cooled to room temperature. 40 μl of Nano-GloHiBiT Lytic Detection Reagent (Promega, Catalog #N3040) was added to each well. Plates were placed on an orbital shaker (600 rpm) for 20 minutes. Luminescence was measured using an Envsion plate reader (Perkin Elmer). IC50 curves and Ymin were generated using a 4-parameter curve fit with GraphPad Prism software (Prism Corporation).
Results from the HiBiT assay (DC50 (nM) and Ymin (% remaining)) are shown below. All CK1α data was generated according to Procedure A. GSPT1 data for Examples 1-600, 603-620 and 703-705 was generated according to Procedure A. GSPT1 data for Examples 601, 621-702 and 706-735 was generated according to Procedure B.
In general terms: HiBiT is a short tag that completes a luciferase, so light tracks the accessible tagged protein.

Another test deals with T1, CK1α (Homo sapiens, UniProt P48729+Q96SW2).
T1 construct: CSNK1A1-HiBit KI HEK293(LgBit) Cells; host or cells: HEK293(LgBit) knock-in cells
The experiment in a line: HiBiT degradation assay, CK1α, Procedure A. It counts as cell-based. Particulars: six hours. In outline: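 Cells in DMEM + 10% FBS were treated with compound in a ten-point dose response from 10 μM to 0.005 μM (0.1% DMSO) for six hours at 37° C. Lysis with Nano-Glo HiBiT detection reagent followed, with luminescence read. DC50 and Ymin came from a 4-parameter fit.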

Sequence of GSPT1 (P15170 whole entry): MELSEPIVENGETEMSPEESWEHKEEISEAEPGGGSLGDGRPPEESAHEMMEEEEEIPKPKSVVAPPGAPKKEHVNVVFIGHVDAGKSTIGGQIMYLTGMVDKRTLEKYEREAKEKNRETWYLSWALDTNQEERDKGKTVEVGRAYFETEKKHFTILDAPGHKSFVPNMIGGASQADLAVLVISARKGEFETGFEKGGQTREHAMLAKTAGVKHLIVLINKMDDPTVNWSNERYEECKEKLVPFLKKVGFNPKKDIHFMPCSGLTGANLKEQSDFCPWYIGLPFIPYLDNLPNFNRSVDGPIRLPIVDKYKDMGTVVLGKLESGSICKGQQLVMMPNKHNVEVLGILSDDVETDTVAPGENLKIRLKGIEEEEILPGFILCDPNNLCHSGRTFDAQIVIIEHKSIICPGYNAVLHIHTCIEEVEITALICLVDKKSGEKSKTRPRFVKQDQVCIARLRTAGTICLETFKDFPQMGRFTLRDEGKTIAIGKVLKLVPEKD
Sequence of GSPT1 (Q96SW2 whole entry): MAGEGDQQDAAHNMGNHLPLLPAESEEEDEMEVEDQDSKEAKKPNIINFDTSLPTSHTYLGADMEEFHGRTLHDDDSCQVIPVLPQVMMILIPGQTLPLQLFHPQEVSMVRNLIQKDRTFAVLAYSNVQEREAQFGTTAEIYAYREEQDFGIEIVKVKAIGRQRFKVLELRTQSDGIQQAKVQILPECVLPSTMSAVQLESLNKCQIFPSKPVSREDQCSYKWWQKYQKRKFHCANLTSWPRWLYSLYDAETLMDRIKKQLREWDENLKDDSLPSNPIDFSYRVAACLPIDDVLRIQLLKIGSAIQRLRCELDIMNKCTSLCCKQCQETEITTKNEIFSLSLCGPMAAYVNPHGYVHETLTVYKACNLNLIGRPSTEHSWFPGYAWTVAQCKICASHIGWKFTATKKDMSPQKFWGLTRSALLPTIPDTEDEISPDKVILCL
Sequence of GSPT1 (Q16531 whole entry partner): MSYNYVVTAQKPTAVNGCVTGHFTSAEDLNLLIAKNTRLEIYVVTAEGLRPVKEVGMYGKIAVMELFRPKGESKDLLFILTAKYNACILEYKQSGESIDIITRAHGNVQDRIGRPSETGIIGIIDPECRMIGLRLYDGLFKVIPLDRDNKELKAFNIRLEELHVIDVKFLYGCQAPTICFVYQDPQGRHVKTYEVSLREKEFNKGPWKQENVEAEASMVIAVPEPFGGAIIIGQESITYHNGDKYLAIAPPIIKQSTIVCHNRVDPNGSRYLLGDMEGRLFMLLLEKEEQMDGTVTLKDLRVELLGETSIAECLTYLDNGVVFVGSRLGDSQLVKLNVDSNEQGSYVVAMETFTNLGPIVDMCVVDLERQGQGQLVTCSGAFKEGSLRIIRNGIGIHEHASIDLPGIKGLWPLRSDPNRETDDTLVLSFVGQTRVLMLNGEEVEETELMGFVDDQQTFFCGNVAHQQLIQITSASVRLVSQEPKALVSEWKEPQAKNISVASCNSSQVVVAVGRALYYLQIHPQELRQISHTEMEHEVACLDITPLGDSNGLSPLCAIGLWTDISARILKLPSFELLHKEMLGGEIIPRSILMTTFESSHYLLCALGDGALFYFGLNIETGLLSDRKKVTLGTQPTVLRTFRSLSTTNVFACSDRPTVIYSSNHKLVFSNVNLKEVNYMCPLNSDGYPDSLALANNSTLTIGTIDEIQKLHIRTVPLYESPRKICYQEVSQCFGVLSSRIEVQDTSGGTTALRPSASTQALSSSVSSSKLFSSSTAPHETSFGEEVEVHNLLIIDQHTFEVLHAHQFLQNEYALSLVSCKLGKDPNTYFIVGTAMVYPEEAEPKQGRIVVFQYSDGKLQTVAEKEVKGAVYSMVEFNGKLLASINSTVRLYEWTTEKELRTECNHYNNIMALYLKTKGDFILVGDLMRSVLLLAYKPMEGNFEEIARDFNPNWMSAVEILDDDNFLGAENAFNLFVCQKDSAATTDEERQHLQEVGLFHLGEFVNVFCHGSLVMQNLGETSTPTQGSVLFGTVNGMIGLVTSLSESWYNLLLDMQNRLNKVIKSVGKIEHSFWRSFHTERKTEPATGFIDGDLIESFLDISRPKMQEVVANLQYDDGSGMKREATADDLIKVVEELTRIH
T1 sequence (P48729 whole entry): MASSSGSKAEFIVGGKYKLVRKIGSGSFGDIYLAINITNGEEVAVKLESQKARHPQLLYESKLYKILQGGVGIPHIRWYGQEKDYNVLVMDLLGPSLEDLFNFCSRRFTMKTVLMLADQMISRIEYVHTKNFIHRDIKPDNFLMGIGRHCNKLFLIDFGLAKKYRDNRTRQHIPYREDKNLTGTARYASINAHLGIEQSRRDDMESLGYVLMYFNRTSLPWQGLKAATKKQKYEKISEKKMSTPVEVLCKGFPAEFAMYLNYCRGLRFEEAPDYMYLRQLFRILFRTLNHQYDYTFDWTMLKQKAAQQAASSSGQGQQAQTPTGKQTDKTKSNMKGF
T1 sequence (Q96SW2 whole entry): as the sequence (Q96SW2 whole entry) above
T1 sequence (Q16531 whole entry partner): as the sequence (Q16531 whole entry partner) above

For the compound `Cn1cc(-c2ccc3c(c2)CN(C2CCC(=O)NC2=O)C3=O)nc1-c1ccc(Cl)cc1` (stereo not shown) [Example 629], at GSPT1, the half-maximal degradation concentration (DC50) (as a rule, the midpoint of the concentration-degradation curve) is at least 25 nM and the “GSPT1 Ymin” value is on record as “F (F = >75-100% remaining)”. On CK1α, the “CK1α Ymin” value was “C (C = 0-10% remaining)” and the DC50 was below 25 nM.
For `C[C@H]1CCCCN1c1nc(-c2ccc3c(c2)CN(C2CCC(=O)NC2=O)C3=O)nn1C` (stereo partly drawn) [Example 708, 3-(5-(1-methyl-5-((S)-2-methylpiperidin-1-yl)-1H-1,2,4-triazol-3-yl)-1-oxoisoindolin-2-yl)piperidine-2,6-dione], in that order: at least 25 nM, “F (F = >75-100% remaining)”, “D (D = >10- 25% remaining)” and below 25 nM.
Consider `Cn1cc(-c2ccc3c(c2)CN(C2CCC(=O)NC2=O)C3=O)nc1-c1ccsc1` (stereo not shown) [Example 664], for which, at GSPT1, the DC50 was at least 25 nM and the “GSPT1 Ymin” value is “E (E = >25-75% remaining)”. At CK1α, the “CK1α Ymin” value was “E (E = >25-75% remaining)” and the 50% degradation concentration (DC50) is below 25 nM.
Regarding `Cn1cc(-c2ccc3c(c2)CN(C2CCC(=O)NC2=O)C3=O)nc1-c1ccc2c(c1)CCCO2` (stereo not shown) [Example 671], on GSPT1, the 50% degradation concentration (DC50) is at least 25 nM and the “GSPT1 Ymin” value was “F (F = >75-100% remaining)”. In addition, on CK1α, the “CK1α Ymin” value is “E (E = >25-75% remaining)” and the DC50 was below 25 nM.
`Cn1ncc(-c2ccc3c(c2)CN(C2CCC(=O)NC2=O)C3=O)c1C1=CCOCC1` (stereo not shown) [Example 693]: on GSPT1, the half-maximal degradation concentration (DC50) was at least 25 nM and the “GSPT1 Ymin” value is on record as “F (F = >75-100% remaining)”. Moreover, at CK1α, the “CK1α Ymin” value was “E (E = >25-75% remaining)” and the DC50 was below 25 nM.
Regarding `Cn1cc(-c2ccc3c(c2)CN(C2CCC(=O)NC2=O)C3=O)nc1-c1ccccc1F` (stereo not shown) [Example 656], at GSPT1, the DC50 was at least 25 nM and the “GSPT1 Ymin” value is given as “F (F = >75-100% remaining)”. Also, at CK1α, the “CK1α Ymin” value is “E (E = >25-75% remaining)” and the 50% degradation concentration (DC50) was below 25 nM.
As to `CC(=O)Nc1ccc(-c2nc(-c3ccc4c(c3)CN(C3CCC(=O)NC3=O)C4=O)cn2C)cc1` (stereo not shown) [Example 723], at GSPT1, the DC50 was at least 25 nM and the “GSPT1 Ymin” value is recorded as “F (F = >75-100% remaining)”. Further, at CK1α, the “CK1α Ymin” value was “C (C = 0-10% remaining)” and the half-maximal degradation concentration (DC50) was below 25 nM.
On to `Cn1cc(-c2ccc3c(c2)CN(C2CCC(=O)NC2=O)C3=O)nc1-c1ccc2ncccc2c1` (stereo not shown) [Example 660], for which, at GSPT1, the DC50 is below 25 nM and the “GSPT1 Ymin” value is on record as “E (E = >25-75% remaining)”. Moreover, on CK1α, the “CK1α Ymin” value was “D (D = >10- 25% remaining)” and the DC50 is below 25 nM.
For the compound `Cn1nc(-c2ccc3c(c2)CN(C2CCC(=O)NC2=O)C3=O)nc1N1CCOCC1` (stereo not shown) [Example 602, 3-(5-(1-methyl-5-morpholino-1H-1,2,4-triazol-3-yl)-1-oxoisoindolin-2-yl)piperidine-2,6-dione], at GSPT1, the 50% degradation concentration (DC50) is at least 25 nM and the “GSPT1 Ymin” value was “F (F = >75-100% remaining)”. At CK1α, the “CK1α Ymin” value was “E (E = >25-75% remaining)” and the DC50 was below 25 nM.
The like results for `Cn1cc(-c2ccc3c(c2)CN(C2CCC(=O)NC2=O)C3=O)nc1-c1cccc(C(N)=O)c1` (stereo not shown) [Example 669] were, in that order, at least 25 nM, “F (F = >75-100% remaining)”, “E (E = >25-75% remaining)” and at least 25 nM.
`COc1ccc(Cl)c(-c2nc(-c3ccc4c(c3)CN(C3CCC(=O)NC3=O)C4=O)cn2C)c1` (stereo not shown) [Example 688]: at GSPT1, the 50% degradation concentration (DC50) is below 25 nM and the “GSPT1 Ymin” value is given as “F (F = >75-100% remaining)”. Moreover, on CK1α, the “CK1α Ymin” value is recorded as “C (C = 0-10% remaining)” and the half-maximal degradation concentration (DC50) is below 25 nM.
As to `Cc1cccc(-c2nc(-c3ccc4c(c3)CN(C3CCC(=O)NC3=O)C4=O)cn2C)c1C` (stereo not shown) [Example 650], at GSPT1, the DC50 is below 25 nM and the “GSPT1 Ymin” value was “F (F = >75-100% remaining)”. Besides, at CK1α, the “CK1α Ymin” value is listed as “D (D = >10- 25% remaining)” and the 50% degradation concentration (DC50) is below 25 nM.
On to `Cn1cc(-c2ccc3c(c2)CN(C2CCC(=O)NC2=O)C3=O)nc1-c1ccc(CO)cc1` (stereo not shown) [Example 657], for which, on GSPT1, the DC50 was at least 25 nM and the “GSPT1 Ymin” value was “F (F = >75-100% remaining)”. For the same compound, at CK1α, the “CK1α Ymin” value is on record as “D (D = >10- 25% remaining)” and the DC50 is below 25 nM.
For the compound `Cc1nc(-c2ccc3c(c2)CN(C2CCC(=O)NC2=O)C3=O)nn1-c1ccccc1` (stereo not shown) [Example 712, 3-(5-(5-methyl-1-phenyl-1H-1,2,4-triazol-3-yl)-1-oxoisoindolin-2-yl) piperidine-2,6-dione], at GSPT1, the half-maximal degradation concentration (DC50) is below 25 nM and the “GSPT1 Ymin” value was “F (F = >75-100% remaining)”. Besides, on CK1α, the “CK1α Ymin” value was “D (D = >10- 25% remaining)” and the DC50 is below 25 nM.
Regarding `Cn1ncc(-c2ccc3c(c2)CN(C2CCC(=O)NC2=O)C3=O)c1C1=CCN(CC(F)(F)F)CC1` (stereo not shown) [Example 702], on GSPT1, the half-maximal degradation concentration (DC50) is at least 25 nM and the “GSPT1 Ymin” value is on record as “F (F = >75-100% remaining)”. Besides, at CK1α, the “CK1α Ymin” value is recorded as “E (E = >25-75% remaining)” and the DC50 is at least 25 nM.
On to `Cn1cc(-c2ccc3c(c2)CN(C2CCC(=O)NC2=O)C3=O)nc1-c1ccc(N2CCOCC2)cc1` (stereo not shown) [Example 666], for which, at GSPT1, the DC50 is at least 25 nM and the “GSPT1 Ymin” value is listed as “F (F = >75-100% remaining)”. Also, on CK1α, the “CK1α Ymin” value is recorded as “E (E = >25-75% remaining)” and the 50% degradation concentration (DC50) is below 25 nM.
`Cn1cc(-c2ccc3c(c2)CN(C2CCC(=O)NC2=O)C3=O)nc1-c1cccc2cnccc12` (stereo not shown) [Example 672]: at GSPT1, the half-maximal degradation concentration (DC50) is below 25 nM and the “GSPT1 Ymin” value is “F (F = >75-100% remaining)”. Besides, at CK1α, the “CK1α Ymin” value is on record as “E (E = >25-75% remaining)” and the 50% degradation concentration (DC50) was below 25 nM.
As for `Cn1cc(-c2ccc3c(c2)CN(C2CCC(=O)NC2=O)C3=O)nc1-c1ccc(F)cc1F` (stereo not shown) [Example 653], on GSPT1, the half-maximal degradation concentration (DC50) is at least 25 nM and the “GSPT1 Ymin” value was “F (F = >75-100% remaining)”. In addition, on CK1α, the “CK1α Ymin” value is “D (D = >10- 25% remaining)” and the 50% degradation concentration (DC50) is below 25 nM.
For `Cc1ccc(-c2nc(-c3ccc4c(c3)CN(C3CCC(=O)NC3=O)C4=O)cn2C)c(N)c1` (stereo not shown) [Example 663], in that order: below 25 nM, “F (F = >75-100% remaining)”, “E (E = >25-75% remaining)” and below 25 nM.
The like results for `Cn1cc(-c2ccc3c(c2)CN(C2CCC(=O)NC2=O)C3=O)nc1-c1cccc(OCc2ccccc2)c1` (stereo not shown) [Example 681] were, in that order, below 25 nM, “D (D = >10- 25% remaining)”, “C (C = 0-10% remaining)” and below 25 nM.
`CCc1nc(-c2ccc3c(c2)CN(C2CCC(=O)NC2=O)C3=O)c(-c2ccccc2)o1` (stereo not shown) [Example 720, 3-(5-(2-ethyl-5-phenyloxazol-4-yl)-1-oxoisoindolin-2-yl) piperidine-2,6-dione]: on GSPT1, the 50% degradation concentration (DC50) is below 25 nM and the “GSPT1 Ymin” value was “E (E = >25-75% remaining)”. In addition, on CK1α, the “CK1α Ymin” value is listed as “C (C = 0-10% remaining)” and the DC50 is below 25 nM.
With `Cn1cc(-c2ccc3c(c2)CN(C2CCC(=O)NC2=O)C3=O)nc1-c1ccc(O)cc1` (stereo not shown) [Example 627], on GSPT1, the DC50 was at least 25 nM and the “GSPT1 Ymin” value was “E (E = >25-75% remaining)”. Also, at CK1α, the “CK1α Ymin” value is reported as “C (C = 0-10% remaining)” and the 50% degradation concentration (DC50) was below 25 nM.
